biological target: human HSV DNA polymerase UL30 (Human herpesvirus 1 (strain 17) (HHV-1) (Human herpes simplex virus 1), UniProt P04293); experiment: biochemical; conditions: 625 pM HSV polymerase, 20 minutes at room temperature; read-out: HSV-polymerase Biochemical IC50

SMILES	IC50 [nM]
Cn1nc(C(=O)NCc2ccc(C#N)cc2)c2c1C(=O)N(CC1(S(=O)(=O)NC3COC3)CC1)CC2 [Example 132, N-(4-Cyanobenzyl)-1-methyl-6-((1-(N-(oxetan-3-yl)sulfamoyl)cyclopropyl)methyl)-7-oxo-4,5,6,7-tetrahydro-1H-pyrazolo[3,4-c]pyridine-3-carboxamide]	451
Cn1nc(C(=O)NCc2ccc(C#N)cc2)c2c1C(=O)N(CC1(S(=O)(=O)N3CCNCC3)CC1)CC2 [Example 133, N-(4-Cyanobenzyl)-1-methyl-7-oxo-6-((1-(piperazin-1-ylsulfonyl)cyclopropyl)methyl)-4,5,6,7-tetrahydro-1H-pyrazolo[3,4-c]pyridine-3-carboxamide]	258
Cn1nc(C(=O)NCc2ccc(C#N)cc2)c2c1C(=O)N(CC1(S(=O)(=O)NCCCN)CC1)CC2 [Example 134, 6-((1-(N-(3-Aminopropyl)sulfamoyl)cyclopropyl)methyl)-N-(4-cyanobenzyl)-1-methyl-7-oxo-4,5,6,7-tetrahydro-1H-pyrazolo[3,4-c]pyridine-3-carboxamide]	282
Cn1nc(C(=O)NCc2ccc(C#N)cc2)c2c1C(=O)N(CC1(S(=O)(=O)NCCN)CC1)CC2 [Example 135, 6-((1-(N-(2-Aminoethyl)sulfamoyl)cyclopropyl)methyl)-N-(4-cyanobenzyl)-1-methyl-7-oxo-4,5,6,7-tetrahydro-1H-pyrazolo[3,4-c]pyridine-3-carboxamide]	1090
CN1CCN(S(=O)(=O)C2(CN3CCc4c(C(=O)NCc5ccc(C#N)cc5)nn(C)c4C3=O)CC2)CC1 [Example 136, N-(4-Cyanobenzyl)-1-methyl-6-((1-((4-methylpiperazin-1-yl)sulfonyl)cyclopropyl)methyl)-7-oxo-4,5,6,7-tetrahydro-1H-pyrazolo[3,4-c]pyridine-3-carboxamide]	243
Cn1nc(C(=O)NCc2ccc(C#N)cc2)c2c1C(=O)N(CC1(S(=O)(=O)NC3CCNCC3)CC1)CC2 [Example 137, N-(4-Cyanobenzyl)-1-methyl-7-oxo-6-((1-(N-(piperidin-4-yl)sulfamoyl)cyclopropyl)methyl)-4,5,6,7-tetrahydro-1H-pyrazolo[3,4-c]pyridine-3-carboxamide]	691
Cn1nc(C(=O)NCc2ccc(C#N)cc2)c2c1C(=O)N(CC1(S(=O)(=O)N3CCC(N)CC3)CC1)CC2 [Example 138, 6-((1-((4-Aminopiperidin-1-yl)sulfonyl)cyclopropyl)methyl)-N-(4-cyanobenzyl)-1-methyl-7-oxo-4,5,6,7-tetrahydro-1H-pyrazolo[3,4-c]pyridine-3-carboxamide]	326
Cn1nc(C(=O)NCc2ccc(C#N)cc2)c2c1C(=O)N(CC1(S(=O)(=O)N3C[C@@H](N)[C@H](O)C3)CC1)CC2 [Example 139, 6-((1-(((3R,4R)-3-Amino-4-hydroxypyrrolidin-1-yl)sulfonyl)cyclopropyl)methyl)-N-(4-cyanobenzyl)-1-methyl-7-oxo-4,5,6,7-tetrahydro-1H-pyrazolo[3,4-c]pyridine-3-carboxamide]	143
Cn1nc(C(=O)NCc2ccc(C#N)cc2)c2c1C(=O)N(CC1(S(=O)(=O)N3C[C@H](N)[C@@H](O)C3)CC1)CC2 [Example 140, 6-((1-(((3S,4S)-3-Amino-4-hydroxypyrrolidin-1-yl)sulfonyl)cyclopropyl)methyl)-N-(4-cyanobenzyl)-1-methyl-7-oxo-4,5,6,7-tetrahydro-1H-pyrazolo[3,4-c]pyridine-3-carboxamide]	147
Cn1nc(C(=O)NCc2ccc(C#N)cc2)c2c1C(=O)N(CC1(S(=O)(=O)N3CC[C@@H](N)C3)CC1)CC2 [Example 141, (R)-6-((1-((3-Aminopyrrolidin-1-yl)sulfonyl)cyclopropyl)methyl)-N-(4-cyanobenzyl)-1-methyl-7-oxo-4,5,6,7-tetrahydro-1H-pyrazolo[3,4-c]pyridine-3-carboxamide]	192
Cn1nc(C(=O)NCc2ccc(C#N)cc2)c2c1C(=O)N(CC1(S(=O)(=O)N3CC[C@H](N)C3)CC1)CC2 [Example 142, (S)-6-((1-((3-Aminopyrrolidin-1-yl)sulfonyl)cyclopropyl)methyl)-N-(4-cyanobenzyl)-1-methyl-7-oxo-4,5,6,7-tetrahydro-1H-pyrazolo[3,4-c]pyridine-3-carboxamide]	268
Cn1nc(C(=O)NCc2ccc(Cl)cc2)c2c1C(=O)N(CC1(S(=O)(=O)NCCO)CC1)CC2 [Example 143, N-(4-Chlorobenzyl)-6-((1-(N-(2-hydroxyethyl)sulfamoyl)cyclopropyl)methyl)-1-methyl-7-oxo-4,5,6,7-tetrahydro-1H-pyrazolo[3,4-c]pyridine-3-carboxamide]	344
CN(CCO)S(=O)(=O)C1(CN2CCc3c(C(=O)NCc4ccc(Cl)cc4)nn(C)c3C2=O)CC1 [Example 144, N-(4-Chlorobenzyl)-6-((1-(N-(2-hydroxyethyl)-N-methylsulfamoyl)cyclopropyl)methyl)-1-methyl-7-oxo-4,5,6,7-tetrahydro-1H-pyrazolo[3,4-c]pyridine-3-carboxamide]	67
Cn1nc(C(=O)NCc2ccc(C#N)cc2)c2c1C(=O)N(CC1(S(=O)(=O)NCCO)CC1)CC2 [Example 145, N-(4-Cyanobenzyl)-6-((1-(N-(2-hydroxyethyl)sulfamoyl)cyclopropyl)methyl)-1-methyl-7-oxo-4,5,6,7-tetrahydro-1H-pyrazolo[3,4-c]pyridine-3-carboxamide]	237
CN(CCO)S(=O)(=O)C1(CN2CCc3c(C(=O)NCc4ccc(C#N)cc4)nn(C)c3C2=O)CC1 [Example 146, N-(4-Cyanobenzyl)-6-((1-(N-(2-hydroxyethyl)-N-methylsulfamoyl)cyclopropyl)methyl)-1-methyl-7-oxo-4,5,6,7-tetrahydro-1H-pyrazolo[3,4-c]pyridine-3-carboxamide]	74
CN(C(CO)CO)S(=O)(=O)C1(CN2CCc3c(C(=O)NCc4ccc(C#N)cc4)nn(C)c3C2=O)CC1 [Example 147, N-(4-Cyanobenzyl)-6-((1-(N-(1,3-dihydroxypropan-2-yl)-N-methylsulfamoyl)cyclopropyl)methyl)-1-methyl-7-oxo-4,5,6,7-tetrahydro-1H-pyrazolo[3,4-c]pyridine-3-carboxamide]	644

SMILES	IC50 [nM]
Cn1nc(C(=O)NCc2ccc(Cl)cc2)c2c1C(=O)N(CC1(S(=O)(=O)NC(C)(C)CO)CC1)CC2 [Example 148, N-(4-Chlorobenzyl)-6-((1-(N-(1-hydroxy-2-methylpropan-2-yl)sulfamoyl)cyclopropyl)methyl)-1-methyl-7-oxo-4,5,6,7-tetrahydro-1H-pyrazolo[3,4-c]pyridine-3-carboxamide]	155
Cn1nc(C(=O)NCc2ccc(C#N)cc2)c2c1C(=O)N(CC1(S(=O)(=O)NC(C)(C)CO)CC1)CC2 [Example 149, N-(4-Cyanobenzyl)-6-((1-(N-(1-hydroxy-2-methylpropan-2-yl)sulfamoyl)cyclopropyl)methyl)-1-methyl-7-oxo-4,5,6,7-tetrahydro-1H-pyrazolo[3,4-c]pyridine-3-carboxamide]	161
Cn1nc(C(=O)NCc2ccc(Cl)cc2)c2c1C(=O)N(CC1(S(=O)(=O)N3CC(O)C3)CC1)CC2 [Example 150, N-(4-Chlorobenzyl)-6-((1-((3-hydroxyazetidin-1-yl)sulfonyl)cyclopropyl)methyl)-1-methyl-7-oxo-4,5,6,7-tetrahydro-1H-pyrazolo[3,4-c]pyridine-3-carboxamide]	81
CNS(=O)(=O)C1(CN2CCc3c(C(=O)NCc4ccc(Cl)cc4)nn(C)c3C2=O)CC1 [Example 151, N-(4-Chlorobenzyl)-1-methyl-6-((1-(N-methylsulfamoyl)cyclopropyl)methyl)-7-oxo-4,5,6,7-tetrahydro-1H-pyrazolo[3,4-c]pyridine-3-carboxamide]	118
Cn1nc(C(=O)NCc2ccc(Cl)cc2)c2c1C(=O)N(CC1(S(=O)(=O)NCC(C)(C)O)CC1)CC2 [Example 152, N-(4-Chlorobenzyl)-6-((1-(N-(2-hydroxy-2-methylpropyl)sulfamoyl)cyclopropyl)methyl)-1-methyl-7-oxo-4,5,6,7-tetrahydro-1H-pyrazolo[3,4-c]pyridine-3-carboxamide]	827
Cn1nc(C(=O)NCc2ccc(Cl)cc2)c2c1C(=O)N(CC1(S(=O)(=O)NC(C)(CO)CO)CC1)CC2 [Example 153, N-(4-Chlorobenzyl)-6-((1-(N-(1,3-dihydroxy-2-methylpropan-2-yl)sulfamoyl)cyclopropyl)methyl)-1-methyl-7-oxo-4,5,6,7-tetrahydro-1H-pyrazolo[3,4-c]pyridine-3-carboxamide]	292
Cn1nc(C(=O)NCc2ccc(C#N)cc2)c2c1C(=O)N(CC1(S(=O)(=O)Nc3ccccn3)CC1)CC2 [Example 155, N-(4-Cyanobenzyl)-1-methyl-7-oxo-6-((1-(N-(pyridin-2-yl)sulfamoyl)cyclopropyl)methyl)-4,5,6,7-tetrahydro-1H-pyrazolo[3,4-c]pyridine-3-carboxamide]	78
Cn1ccc(NS(=O)(=O)C2(CN3CCc4c(C(=O)NCc5ccc(C#N)cc5)nn(C)c4C3=O)CC2)n1 [Example 156]	62
Cc1cccc(NS(=O)(=O)C2(CN3CCc4c(C(=O)NCc5ccc(C#N)cc5)nn(C)c4C3=O)CC2)n1 [Example 157]	46
Cn1nc(C(=O)NCc2ccc(Cl)cc2)c2c1C(=O)N(CC1(S(=O)(=O)Nc3ccccn3)CC1)CC2 [Example 158]	58
COc1cccnc1NS(=O)(=O)C1(CN2CCc3c(C(=O)NCc4ccc(C#N)cc4)nn(C)c3C2=O)CC1 [Example 159]	423
COc1ccc(C)nc1NS(=O)(=O)C1(CN2CCc3c(C(=O)NCc4ccc(C#N)cc4)nn(C)c3C2=O)CC1 [Example 160]	301
Cc1ncccc1NS(=O)(=O)C1(CN2CCc3c(C(=O)NCc4ccc(C#N)cc4)nn(C)c3C2=O)CC1 [Example 161]	40
COc1ncccc1NS(=O)(=O)C1(CN2CCc3c(C(=O)NCc4ccc(C#N)cc4)nn(C)c3C2=O)CC1 [Example 162]	18
COc1cccc(NS(=O)(=O)C2(CN3CCc4c(C(=O)NCc5ccc(C#N)cc5)nn(C)c4C3=O)CC2)n1 [Example 163]	36
Cc1cccnc1NS(=O)(=O)C1(CN2CCc3c(C(=O)NCc4ccc(C#N)cc4)nn(C)c3C2=O)CC1 [Example 164]	185
